Results as given in US7696354B2, “Cephem compounds having broad antibacterial spectrum” (Shionogi & Co., Ltd., priority 2002, dated 2010).
Converted amounts (≈) assume the structure as drawn.

Legend:
Assay type in all cases: cell-based
[1] = test system: S. aureus SR3637 (H-MRSA); assay: MIC by agar dilution method, S. aureus SR3637 (H-MRSA); conditions: Methicillin High-Resistant Staphylococcus Aureus; for MIC: MRSA, read-out: MIC (minimum inhibitory concentration) S. aureus SR3637 (H-MRSA)
Description: (§1) The MIC (minimum inhibitory concentration) value of the invention compounds against various bacterial was determined by the usual agar dilution method.

[2] = test system: P. aeruginosa SR24-12; assay: MIC by agar dilution method, P. aeruginosa SR24-12; conditions: for MIC: Pseudomonas aeruginosa, SR2412, AmpC High-Production Cephem Resistant Strain, read-out: MIC (minimum inhibitory concentration) P. aeruginosa SR24-12
Description: as §1

[3] = test system: E. cloacae SR4321 (Bla++); assay: MIC by agar dilution method, E. cloacae SR4321 (Bla++); conditions: AmpC High-Production Cephem Resistant Strain; for MIC: Enterobacter cloacae, read-out: MIC (minimum inhibitory concentration) E. cloacae SR4321 (Bla++)
Description: as §1

[4] = test system: S. epidermidis SR25009 (MRSE); assay: MIC by agar dilution method, S. epidermidis SR25009 (MRSE); conditions: Methicillin High-Resistant Staphylococcus Epidermidis; for MIC: MRSE, read-out: MIC (minimum inhibitory concentration) S. epidermidis SR25009 (MRSE)
Description: as §1

SMILES | MIC [1] | MIC [2] | MIC [3] | MIC [4] | MIC (minimum inhibitory concentration) S. aureus SR3637 (H-MRSA) [1] | MIC (minimum inhibitory concentration) P. aeruginosa SR24-12 ([2]; AmpC High-Production Cephem Resistant Strain) | MIC (minimum inhibitory concentration) E. cloacae SR4321 (Bla++) [3] | MIC (minimum inhibitory concentration) S. epidermidis SR25009 (MRSE) [4]
CC(C)(O/N=C(\C(=O)NC1C(=O)N2C(C(=O)[O-])=C(C[n+]3ccccc3)CSC12)c1nc(N)sc1Cl)C(=O)O (stereo not drawn) [Ex. 3] | 32 µg/mL (≈ 55.1 µM) | 8 µg/mL (≈ 13.8 µM) | 16 µg/mL (≈ 27.5 µM) | 32 µg/mL (≈ 55.1 µM) | – | – | – | –
CNCCCn1ccc2c1ccc[n+]2CC1=C(C(=O)[O-])N2C(=O)C(NC(=O)/C(=N\O[C@H](C)C(=O)O)c3nc(N)sc3Cl)C2SC1 (stereo partly drawn) [Ex. 8] | 32 µg/mL (≈ 47.3 µM) | 4 µg/mL (≈ 5.91 µM) | 4 µg/mL (≈ 5.91 µM) | 32 µg/mL (≈ 47.3 µM) | – | – | – | –
C=C(O/N=C(\C(=O)NC1C(=O)N2C(C(=O)[O-])=C(C[n+]3cccc4c3ccn4CCCNC)CSC12)c1nc(N)sc1Cl)C(=O)O (stereo not drawn) [Ex. 19] | 16 µg/mL (≈ 23.7 µM) | 8 µg/mL (≈ 11.8 µM) | 1 µg/mL (≈ 1.48 µM) | 8 µg/mL (≈ 11.8 µM) | – | – | – | –
CNCCCn1ccc2c1ccc[n+]2CC1=C(C(=O)[O-])N2C(=O)C(NC(=O)/C(=N\OC(C)(C)C(=O)O)c3nc(N)sc3Br)C2SC1 (stereo not drawn) [Ex. 20] | 16 µg/mL (≈ 21.7 µM) | 4 µg/mL (≈ 5.44 µM) | 8 µg/mL (≈ 10.9 µM) | 16 µg/mL (≈ 21.7 µM) | – | – | – | –
CNCCCn1c(N)nc2c1ccc[n+]2CC1=C(C(=O)[O-])N2C(=O)[C@@H](NC(=O)/C(=N\O[C@@H](C)C(=O)O)c3nc(N)sc3Cl)C2SC1 (stereo partly drawn) [Ex. 79] | 8 µg/mL (≈ 11.5 µM) | 4 µg/mL (≈ 5.77 µM) | 2 µg/mL (≈ 2.89 µM) | 8 µg/mL (≈ 11.5 µM) | – | – | – | –
C[C@H](N)Cn1c(N)nc2c1ccc[n+]2CC1=C(C(=O)[O-])N2C(=O)C(NC(=O)/C(=N\O[C@@H](C)C(=O)O)c3nc(N)sc3Cl)C2SC1 (stereo partly drawn) [Ex. 98] | 8 µg/mL (≈ 11.8 µM) | 2 µg/mL (≈ 2.94 µM) | 2 µg/mL (≈ 2.94 µM) | 8 µg/mL (≈ 11.8 µM) | – | – | – | –
CNCCNc1cc[n+](CC2=C(C(=O)[O-])N3C(=O)[C@@H](NC(=O)/C(=N\O[C@@H](C)C(=O)O)c4nc(N)sc4Cl)[C@H]3SC2)cc1 [Ex. 124] | 16 µg/mL (≈ 25 µM) | 4 µg/mL (≈ 6.26 µM) | 4 µg/mL (≈ 6.26 µM) | 8 µg/mL (≈ 12.5 µM) | – | – | – | –
C[C@H](O/N=C(\C(=O)N[C@@H]1C(=O)N2C(C(=O)[O-])=C(C[n+]3ccc(NC4CCNC4)cc3)CS[C@H]12)c1nc(N)sc1Cl)C(=O)O (stereo partly drawn) [Ex. 132] | 16 µg/mL (≈ 24.6 µM) | 4 µg/mL (≈ 6.14 µM) | 4 µg/mL (≈ 6.14 µM) | 8 µg/mL (≈ 12.3 µM) | – | – | – | –
CC(C)(O/N=C(\C(=O)N[C@@H]1C(=O)N2C(C(=O)[O-])=C(C[n+]3ccccc3)CS[C@H]12)c1csc(N)n1)C(=O)O [Ref. 1, Ceftazidime, reference compound] | – | – | – | – | >128 µg/mL | 64 µg/mL (≈ 117 µM) | 64 µg/mL (≈ 117 µM) | >128 µg/mL
